From patent US9814714B2, “Kinase modulation, and indications therefor” (Plexxikon Inc., priority 2015, dated 2017)
pEC50, pIC50: −log10 of the molar value.

Columns and labels:
[1] = test system: pERK in A375 cells (BRAF^V600E, homozygous); test: Phospho-ERK AlphaScreen assay, pERK inhibition in A375; format: cell-based; details: Homo sapiens, A-375, 1 h, read-out: pERK inhibition IC50 A375
Procedure: (§1) Phospho-ERK AlphaScreen® assay: The degree of ERK phosphorylation was determined using an AlphaScreen® assay where an increase in ERK1/2 phosphorylation at Thr202/Tyr204 brought the donor and acceptor AlphaScreen® beads into close proximity, generating a signal for quantification. To determine the effects of compound treatment on phosphorylation of ERK1/2, cells were plated in a 96-well plate and treated with an 8-point titration of compound for one hour at 37° C. before lysis. To detect pERK, cell lysates were incubated with streptavidin-coated AlphaScreen® donor beads, anti-mouse IgG AlphaScreen® acceptor beads, a biotinylated anti-ERK1/2 rabbit antibody, and a mouse antibody that recognizes ERK1/2 only when it is phosphorylated on Thr202 and Tyr204. The biotinylated ERK1/2 antibody binds to both the streptavidin-coated AlphaScreen® donor beads and to ERK1/2 (regardless of its phosphorylation state), and the phospho-ERK1/2 antibody binds to the acceptor beads and to ERK1/2 that is phosphorylated at Thr202/Tyr204. An increase in ERK1/2 phosphorylation at Thr202/Tyr204 brings the donor and acceptor AlphaScreen® beads into close proximity, generating a signal that can be quantified on an EnVision reader (Perkin Elmer).
(§2) Using AlphaScreen® technology, the ability of Formula I to affect the phosphorylation of ERK and MEK in the cells was measured quantitatively. Following treatment with compound, the cells were lysed, and a sample of the lysate was transferred to an assay plate. The lysate was mixed with antibodies directed against total ERK/MEK, antibodies that recognize specific phosphorylation sites on ERK/MEK, AlphaScreen® anti-mouse IgG Acceptor beads, and Streptavidin Donor beads. Upon excitation of the donor beads with laser light at 680 nm, singlet oxygen was produced. This singlet oxygen was rapidly quenched, unless the AlphaScreen® Acceptor beads were in close proximity, in which case a proximity signal can be measured at 580 nm. In the presence of phosphorylated ERK/MEK, there is a very strong proximity signal.
(§3) 1. One day before the assay, 50,000 cells were plated in each well of a 96-well tissue-culture-treated plate (Corning #3610) in a 50 μL volume. Cells were incubated at 37° C. overnight.
(§4) 2. Compounds were diluted in DMSO to 500× final concentration. Each compound was plated as an 8-point titration, using 1:3 dilutions in DMSO. The maximum concentration was about 5 mM.
(§5) 3. 1 μl of compound was added to each well of a 96-well polypropylene plate (Corning #3363). For A375, COLO829, SK-MEL-3, HCT116, and HT-29, the high control was DMSO, and the low control was 10 μM PLX4720 (CAS No. 918505-84-7). For B9 and IPC-298, the high control was 3.33 μM PLX4720, and the low control was DMSO. 4. 249 μL growth media was added to compounds, diluting them 250-fold. 5. […] The compound was incubated with the cells at 37° C. for one hour. 6. The media was aspirated, and the cells were lysed in 50 μL of ice-cold 1× Cell Lysis buffer. The plates were incubated on ice for 5 minutes to allow complete lysis of the cells. 7. A mixture of biotinylated donor antibody, acceptor antibody, and anti-mouse IgG AlphaScreen® acceptor beads in 1× AlphaLISA immunoassay buffer was prepared. 8. 5 μL of lysate was transferred to a 384-well assay plate (Perkin Elmer #6005359). 5 μL of the antibody and acceptor bead mixture was added. The plates were spinned.

[2] = test system: pERK in IPC-298 cells (NRAS^Q61L); test: Phospho-ERK AlphaScreen assay, pERK activation in IPC-298; format: cell-based, human; details: Homo sapiens, IPC-298, read-out: pERK activation EC50 IPC298
Procedure: as §1, §2, §3, §4, §5

[3] = test system: pERK in HCT116 cells (KRAS^G13D); test: Phospho-ERK AlphaScreen assay, pERK activation in HCT116; format: cell-based; details: Homo sapiens, HCT-116, read-out: pERK activation EC50 HCT116
Procedure: as §1, §2, §3, §4, §5

[4] = test system: pERK in B9 cells (HRAS^Q61L); test: Phospho-ERK AlphaScreen assay, pERK activation in B9; format: cell-based, murine; details: Mus musculus, read-out: pERK activation EC50 B9
Procedure: as §1, §2, §3, §4, §5

[5] = test system: pERK in COLO829 cells (BRAF^V600E, heterozygous); test: Phospho-ERK AlphaScreen assay, pERK inhibition in COLO829; format: cell-based; details: Homo sapiens, COLO-829, 1 h, read-out: pERK inhibition IC50 COLO829
Procedure: as §1, §2, §3, §4, §5

[6] = biological target: NIH/3T3 cells stably expressing KIAA1549-BRAF fusions (Homo sapiens, UniProt P15056); test: BRAF fusion xenograft tumor growth; format: in vivo, balb/c nu/nu mice; details: three of the four KIAA1549-BRAF fusions; PLX4720 chow
Chain of NIH/3T3 cells stably expressing KIAA1549-BRAF fusions (P15056 448-766 limits assumed): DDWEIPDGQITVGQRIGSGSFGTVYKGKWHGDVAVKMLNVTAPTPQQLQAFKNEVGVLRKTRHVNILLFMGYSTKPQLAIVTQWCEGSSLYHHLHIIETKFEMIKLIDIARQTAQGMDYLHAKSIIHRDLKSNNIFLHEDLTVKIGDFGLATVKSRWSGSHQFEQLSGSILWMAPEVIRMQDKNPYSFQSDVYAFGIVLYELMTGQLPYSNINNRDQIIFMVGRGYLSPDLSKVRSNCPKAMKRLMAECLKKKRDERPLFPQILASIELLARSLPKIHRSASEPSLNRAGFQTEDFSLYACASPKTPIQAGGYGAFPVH
Procedure: NIH/3T3 (ATCC® CRL-1658™) cells stably expressing KIAA1549-BRAF fusions (Fusion-1, Fusion-2, Fusion-3, and Fusion-4) were injected into the flank of balb/c nu/nu mice. Tumor growth was measured with calipers. Ellipsoid tumor volume was calculated using the following formula: volume=½·length·width^2.

## CNC(=O)c1cc(Oc2ccc(NC(=O)Nc3ccc(Cl)c(C(F)(F)F)c3)cc2)ccn1 [Sorafenib, sorafenib]
[1]
  pIC50: 5.36
[2]
  pEC50: 7.72
[3]
  pEC50: 7.07
[4]
  pEC50: 7.60
[5]
  pIC50: 5.70

## CCCS(=O)(=O)Nc1ccc(F)c(C(=O)c2c[nH]c3ncc(Cl)cc23)c1F [PLX4720, reference compound]
[6]
  Effect on xenograft tumor growth (in words): increased tumor growth

## CC(C)(C)c1nc(-c2cccc(NS(=O)(=O)c3c(F)cccc3F)c2F)c(-c2ccnc(N)n2)s1 [Dabrafenib, dabrafenib]
[1]
  pIC50: 9.00
[2]
  pEC50: 8.00
[3]
  pEC50: 8.52
[4]
  pEC50: 8.00
[5]
  pIC50: 8.30
